# Experimental data as given in ChEMBL document CHEMBL1129469, “Nonpeptide angiotensin II receptor antagonists: the next generation in antihypertensive therapy” (J Med Chem, 1996).
# Numbering of substitutions follows the chain as printed.
# How the values were obtained:
# [1] = molecular target: T1, Angiotensin II receptor (AT-1) type-1 (Rattus norvegicus, UniProt P29089+P25095); test: Inhibitory activity against Angiotensin II receptor, type 1 in rat aortic membrane; type: cell membranes
# T1 sequence (P29089 whole entry): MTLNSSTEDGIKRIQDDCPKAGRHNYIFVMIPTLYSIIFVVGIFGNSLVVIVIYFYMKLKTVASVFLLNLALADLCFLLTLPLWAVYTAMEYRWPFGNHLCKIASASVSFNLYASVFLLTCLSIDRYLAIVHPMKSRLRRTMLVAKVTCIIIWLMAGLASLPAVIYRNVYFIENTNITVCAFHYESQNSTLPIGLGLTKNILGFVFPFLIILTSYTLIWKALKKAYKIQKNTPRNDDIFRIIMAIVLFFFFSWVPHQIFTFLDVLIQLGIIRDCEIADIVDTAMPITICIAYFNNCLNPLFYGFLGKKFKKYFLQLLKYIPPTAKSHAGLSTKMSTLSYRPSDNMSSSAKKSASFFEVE
# T1 sequence (P25095 whole entry): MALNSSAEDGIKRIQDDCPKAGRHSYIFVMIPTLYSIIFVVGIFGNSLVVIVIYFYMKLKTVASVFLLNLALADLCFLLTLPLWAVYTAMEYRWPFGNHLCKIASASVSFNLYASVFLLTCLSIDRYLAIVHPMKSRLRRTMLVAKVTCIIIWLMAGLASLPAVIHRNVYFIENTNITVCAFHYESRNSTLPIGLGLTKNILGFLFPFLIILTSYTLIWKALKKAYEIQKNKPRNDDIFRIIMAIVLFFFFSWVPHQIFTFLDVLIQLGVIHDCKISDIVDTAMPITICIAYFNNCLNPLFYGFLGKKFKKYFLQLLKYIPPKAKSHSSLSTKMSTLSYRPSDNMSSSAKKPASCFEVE
# [2] = molecular target: T2, Type-1 angiotensin II receptor (Cavia porcellus, UniProt Q9WV26); test: In vitro antagonistic potency against Angiotensin II receptor, type 1 in guinea pig adrenal membrane; type: functional, cell membranes
# T2 sequence (Q9WV26 whole entry): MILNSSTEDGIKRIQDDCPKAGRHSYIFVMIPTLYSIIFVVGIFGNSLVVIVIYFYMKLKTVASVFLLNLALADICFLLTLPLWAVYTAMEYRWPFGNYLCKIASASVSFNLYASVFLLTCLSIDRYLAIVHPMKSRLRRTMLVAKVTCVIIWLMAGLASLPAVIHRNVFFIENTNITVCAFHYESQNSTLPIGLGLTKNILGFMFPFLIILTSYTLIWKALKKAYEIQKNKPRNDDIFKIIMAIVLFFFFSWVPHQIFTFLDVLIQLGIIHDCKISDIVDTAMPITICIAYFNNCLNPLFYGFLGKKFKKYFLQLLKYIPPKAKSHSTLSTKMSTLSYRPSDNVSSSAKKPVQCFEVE
# Rattus norvegicus [3] = test: Effective dose required for inhibition of Ang II-induced pressor response in conscious rats; type: functional
# Rattus norvegicus [4] = organism: Rattus norvegicus; test: Effective dose required for lowering blood pressure in renal hypertensive rats (RHR); type: functional
# [5] = molecular target: T1, Angiotensin II receptor (AT-1) type-1; test: Binding affinity was evaluated towards Angiotensin II receptor, type 1 in rat adrenal membrane; type: cell membranes
# Oryctolagus cuniculus [6] = organism: Oryctolagus cuniculus; test: (§1) Compound was tested for its antagonistic activity against angiotensin II-induced contractions in rabbit aorta; type: functional
# [7] = molecular target: T3, Type-1 angiotensin II receptor (Oryctolagus cuniculus, UniProt P34976); test: Inhibitory activity was evaluated against angiotensin II type 1 rabbit aorta; type: tissue-based
# T3 sequence (P34976 whole entry): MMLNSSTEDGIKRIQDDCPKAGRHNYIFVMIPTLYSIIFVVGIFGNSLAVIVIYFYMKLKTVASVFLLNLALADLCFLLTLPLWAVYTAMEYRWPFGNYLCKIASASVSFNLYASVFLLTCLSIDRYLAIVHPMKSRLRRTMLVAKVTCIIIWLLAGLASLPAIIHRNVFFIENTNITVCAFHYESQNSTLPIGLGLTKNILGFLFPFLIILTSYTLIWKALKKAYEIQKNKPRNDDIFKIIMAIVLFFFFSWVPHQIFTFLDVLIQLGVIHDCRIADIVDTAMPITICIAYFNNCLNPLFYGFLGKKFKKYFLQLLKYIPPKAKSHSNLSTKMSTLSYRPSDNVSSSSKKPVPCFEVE
# [8] = molecular target: T4, Type-2 angiotensin II receptor (Homo sapiens, UniProt P50052); test: Inhibition of Angiotensin II receptor, type 2
# T4 sequence (P50052 whole entry): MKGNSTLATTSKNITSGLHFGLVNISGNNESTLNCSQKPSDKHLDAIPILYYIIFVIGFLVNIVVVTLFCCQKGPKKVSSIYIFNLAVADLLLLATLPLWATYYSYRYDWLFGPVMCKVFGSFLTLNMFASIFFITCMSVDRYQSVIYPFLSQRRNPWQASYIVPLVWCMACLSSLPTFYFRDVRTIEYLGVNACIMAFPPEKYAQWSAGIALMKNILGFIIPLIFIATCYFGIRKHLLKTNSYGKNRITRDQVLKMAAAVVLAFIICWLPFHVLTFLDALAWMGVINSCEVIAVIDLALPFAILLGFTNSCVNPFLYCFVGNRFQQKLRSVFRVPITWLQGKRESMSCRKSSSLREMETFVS
# [9] = molecular target: T5, Type-1 angiotensin II receptor (Homo sapiens, UniProt P30556); test: Inhibition of Angiotensin II receptor, type 1
# T5 sequence (P30556 whole entry): T3 sequence (P34976 whole entry) with M2I, A49V, V254I, V270I, H272R, K311R, S349T, V353A
# Rattus norvegicus [10] = test: Percent inhibition was evaluated against Ang II pressor in rats at dose 3 mg/kg, by oral administration; type: functional
# [11] = molecular target: T1, Angiotensin II receptor (AT-1) type-1; test: In vitro antagonistic potency against Angiotensin II receptor, type 1 in rat liver; type: functional, tissue-based
# Rattus norvegicus [12] = organism: Rattus norvegicus; test: Oral effective dose required for lowering blood pressure in spontaneous hypertensive rats (SHR); type: functional
# Rattus norvegicus [13] = organism: Rattus norvegicus; test: Oral effective dose required for lowering blood pressure in renal hypertensive rats (RHR); type: functional
# [14] = molecular target: T3, Type-1 angiotensin II receptor; test: Binding affinity was evaluated towards Angiotensin II receptor, type 1 in rabbit aorta; type: tissue-based
# Rattus norvegicus [15] = test: Compound at an oral dose of 3 mg/Kg was tested for the inhibition of Ang-II induced pressor responses in conscious rats; type: functional
# Rattus norvegicus [16] = test: Oral effective dose required for inhibition of pressor response in conscious rats; type: functional
# Rattus norvegicus [17] = test: Effective dose was evaluated in pithed normotensive rats by intraveneous administration; type: functional; conditions: iv
# Rattus norvegicus [18] = test: Effective dose was evaluated in pithed normotensive rats by oral administration; type: functional
# Rattus norvegicus [19] = organism: Rattus norvegicus; test: pD'2 value was evaluated against in rat portal vein; type: functional
# [20] = Inhibitory activity was evaluated against Angiotensin II receptor, type 2
# Rattus norvegicus [21] = organism: Rattus norvegicus; test: Oral effective dose required for inhibition of Ang II pressor response in rats; type: functional
# Rattus norvegicus [22] = test: Dose dependent inhibition of pressor responses to Ang-II in conscious normotensive rat by bolus intravenous administration; type: functional; conditions: read-out: ID50 (the source's name)
# Rattus norvegicus [23] = test: Dose dependent inhibition of pressor responses to Ang-II receptor in conscious normotensive rat by intraduodenal administration; type: functional; conditions: read-out: ID50 (the source's name)
# Canis familiaris = test: Compound at an oral dose of 30 mg/Kg was tested for the inhibition of Ang-II induced pressor responses in conscious dog; type: functional; conditions: Canis lupus familiaris
# HASMC = test: Inhibitory activity against Ang II-induced proliferation of human aortic smooth muscle cells in a dose-dependent manner; type: functional, cell-based
# Oryctolagus cuniculus [24] = organism: Oryctolagus cuniculus; test: as §1; type: functional, organism-based
# [25] = Oral bioavailability was evaluated in rat by oral administration; type: ADME, organism-based; conditions: in vivo
# [26] = Oral bioavailability in rat; type: ADME, organism-based; conditions: in vivo
# [27] = Oral bioavailability was evaluated in rhesus monkey; type: ADME, organism-based, Macaca mulatta; conditions: in vivo
# Rattus norvegicus [28] = test: Intravenous effective dose required for inhibition of Ang II pressor response in conscious rat; type: functional
# Rattus norvegicus [29] = test: Oral effective dose required for inhibition of Ang II pressor response in conscious rat; type: functional
# Rattus norvegicus [30] = organism: Rattus norvegicus; test: pA2 value was evaluated against angiotensin II-induced aldosterone release in rat adrenal cortical cells; type: functional, cell-based; conditions: read-out: pA2 (converted)
compound,measurement,setting,value
CCCCC(=O)N(Cc1ccc(-c2ccccc2-c2nnn[nH]2)cc1)[C@H](C(=O)O)C(C)C,IC50,[1],2.7 nM
CCc1cc2c(c(CC)n1)CCC(=O)N2Cc1ccc(-c2ccccc2-c2nnn[nH]2)cc1,IC50,[2],3.8 nM
same,ED50,Rattus norvegicus [3],0.19 mg/kg
CCCCc1nc(Cl)c(CC(=O)OC)n1Cc1ccc(NC(=O)c2ccccc2C(=O)O)cc1,ED30,Rattus norvegicus [4],11 mg/kg
CCCc1nc(C)n2[nH]c(=O)nc2c1Cc1ccc(-c2ccccc2-c2nnn[nH]2)cc1,Ki,[5],24 nM
same,Kb,Oryctolagus cuniculus [6],0.29 nM
CCc1nc2c(CC)cn(Cc3ccc(-c4ccccc4-c4nn[nH]n4)cc3)n2n1,IC50,[7],1.7 nM
CCCCCN(Cc1ccc(-c2ccccc2-c2nn[nH]n2)cc1)C(=O)N1CCN(C(=O)N(c2ccccc2)c2ccccc2)[C@H](C(=O)O)C1,IC50,[8],180 nM
same,IC50,[9],15 nM
same,inhibition in vivo at 3 mg/kg,Rattus norvegicus [10],80%
COc1c(OCc2ccc(-c3ccccc3-c3nn[nH]n3)cc2)cc(C)nc1C,Log Ki,[11],-8.7
same,ED50,Rattus norvegicus [12],0.48 mg/kg
same,ED50,Rattus norvegicus [13],2.5 mg/kg
CCCCc1nc(C)n(Cc2sccc2C(=O)OC)c(=O)c1Cc1ccc(-c2ccccc2-c2nnn[nH]2)cc1,Ki,[14],0.9 nM
same,pKb,Oryctolagus cuniculus [6],9.5
CCc1nc2c(C)cc(C)nc2n1Cc1ccc2c(c1)C(Cc1nnn[nH]1)c1ccccc1-2 (stereo not given),inhibition in vivo at 3 mg/kg,Rattus norvegicus [15],73%
CCCCc1nc(Cl)c(C(=O)OC(C)OC(=O)OCC)n1Cc1ccc(-c2ccccc2-c2nn[nH]n2)cc1 (stereo not given),ED50,Rattus norvegicus [16],0.5 mg/kg
CCCCc1nc(SC)c(C(=O)O)n1Cc1ccc(-c2ccccc2S(=O)(=O)NC(=O)NCCC)cc1,ED50,Rattus norvegicus [17],0.11 mg/kg
same,ED50,Rattus norvegicus [18],0.7 mg/kg
same,pD'2,Rattus norvegicus [19],10.15
same,IC50,[20],920 nM
CCOc1nc2cccc(C(=O)OC(C)OC(=O)OC3CCCCC3)c2n1Cc1ccc(-c2ccccc2-c2nn[nH]n2)cc1 (stereo not given) [CANDESARTAN CILEXETIL],ED50,Rattus norvegicus [21],0.069 mg/kg
CCCCc1ncc(/C=C(\Cc2cccs2)C(=O)O)n1Cc1ccc(C(=O)O)cc1 [EPROSARTAN],ED50,Rattus norvegicus [22],0.08 mg/kg
same,ED50,Rattus norvegicus [23],5.5 mg/kg
CCCCc1nc(CCCC)n(Cc2ccc(-c3ccccc3-c3nnn[nH]3)nc2)n1 [FORASARTAN],inhibition in vivo at 30 mg/kg,Canis familiaris,91%
CCCCC1=NC2(CCCC2)C(=O)N1Cc1ccc(-c2ccccc2-c2nnn[nH]2)cc1 [IRBESARTAN],IC50,HASMC,320 nM
same,IC50,Oryctolagus cuniculus [24],4 nM
CCc1nc2c(C)cc(C)nc2n1Cc1ccc(-c2ccccc2-c2nn[nH]n2)cc1 [L-158809],bioavailability,[25],70%
same,bioavailability,[26],100%
same,bioavailability,[27],32%
same,Kb,Oryctolagus cuniculus [6],0.28 nM
same,pKB,Oryctolagus cuniculus [6],9.3
same,ED50,Rattus norvegicus [28],0.029 mg/kg
same,ED50,Rattus norvegicus [29],0.023 mg/kg
same,Kb,Rattus norvegicus [30],0.0316 nM
